Values after ≈ are worked out from the molar mass of the structure shown.
Assays:
Assay type in all cases: physicochemical
[1] = Lipophilicity, log P of the compound; settings: octanol/water
[2] = Distribution coefficient, log D of the compound by HPLC method; settings: octanol/water
[3] = Solubility by CLND method

| Structure (SMILES) | logP [1] | logD [2] | solubility kinetic [3] |
| --- | --- | --- | --- |
| Nc1ccccc1NC(=O)c1ccc(CNC2=N[C@@H](c3ccccc3)CN2)cc1 | 3.46 | 1.92 | ≥ 70 µg/mL |
| Nc1ccccc1NC(=O)c1ccc(CSC2=N[C@@H](c3ccccc3)CN2)cc1 | 4.31 | 3.49 | 116 µg/mL (≈ 288 µM) |
| Nc1ccccc1NC(=O)c1ccc(CSC2=N[C@@H](c3cccnc3)CO2)cc1 | 3.32 | 3.19 | 108 µg/mL (≈ 267 µM) |
| Nc1ccccc1NC(=O)c1ccc(CSC2=N[C@@H](Cc3ccccc3)CO2)cc1 | 5.67 | 5.41 | 31 µg/mL (≈ 74.2 µM) |
| Nc1ccccc1NC(=O)c1ccc(CNC2=N[C@@H](c3ccccc3)CO2)cc1 | 3.74 | 3.1 |  |
| Nc1ccccc1NC(=O)c1ccc(CNC2=N[C@H](c3ccccc3)CO2)cc1 | 3.76 | 3.09 | ≥ 151 µg/mL |
| Nc1ccccc1NC(=O)c1ccc(CNC2=NC(c3ccc(F)cc3)CO2)cc1 (stereo not drawn) | 3.97 |  | 147 µg/mL (≈ 363 µM) |
| Nc1ccccc1NC(=O)c1ccc(CNC2=NC(c3cccc(F)c3)CO2)cc1 (stereo not drawn) | 3.84 | 3.42 | ≥ 131 µg/mL |
| Nc1ccccc1NC(=O)c1ccc(CNC2=NC(c3ccc(C(F)(F)F)cc3)CO2)cc1 (stereo not drawn) | 4.72 | 4.54 | 8 µg/mL (≈ 17.6 µM) |
| Nc1ccccc1NC(=O)c1ccc(CNC2=N[C@@H](c3ccc(O)cc3)CO2)cc1 | 2.13 | 1.74 | ≥ 130 µg/mL |
| Nc1ccccc1NC(=O)c1ccc(CNC2=N[C@@H](c3cccnc3)CO2)cc1 | 1.78 | 1.71 | ≥ 124 µg/mL |
| Nc1ccccc1NC(=O)c1ccc(CNC2=N[C@@H](Cc3ccccc3)CO2)cc1 | 4.15 | 2.86 | ≥ 148 µg/mL |
| Nc1ccccc1NC(=O)c1ccc(CNC2=NC[C@@H](c3ccccc3)O2)cc1 | 3.58 | 2.79 | 98 µg/mL (≈ 254 µM) |
| Nc1ccccc1NC(=O)c1ccc(CNC2=NC[C@H](c3ccccc3)O2)cc1 | 3.84 | 2.99 | 77 µg/mL (≈ 199 µM) |
| Nc1ccccc1NC(=O)c1ccc(CNC2=NC(c3ccccc3)(c3ccccc3)CO2)cc1 | 5.59 | 5.29 | 7 µg/mL (≈ 15.1 µM) |
| Nc1ccccc1NC(=O)c1ccc(CNC2=N[C@@H](c3ccccc3)[C@H](c3ccccc3)O2)cc1 | 5.41 | 5.01 | 6 µg/mL (≈ 13 µM) |
| Nc1ccccc1NC(=O)c1ccc(CNC2=N[C@H](c3ccccc3)[C@H](c3ccccc3)O2)cc1 | 5.01 | 4.54 | 73 µg/mL (≈ 158 µM) |
| Nc1ccccc1NC(=O)c1ccc(CNC2=N[C@@H](Cc3c[nH]cn3)CO2)cc1 | 0.95 | 0.9 | ≥ 142 µg/mL |
| Nc1ccccc1NC(=O)c1ccc(CNC2=N[C@H](Cc3c[nH]cn3)CO2)cc1 | 0.93 | 0.89 | ≥ 158 µg/mL |
| Nc1ccccc1NC(=O)c1ccc(CNc2nccc(-c3cccnc3)n2)cc1 [MOCETINOSTAT] | 2.96 | 2.96 | 107 µg/mL (≈ 270 µM) |

— ChEMBL document CHEMBL3603817, “Potent and Selective Inhibitors of Histone Deacetylase-3 Containing Chiral Oxazoline Capping Groups and a N-(2-Aminophenyl)-benzamide Binding Unit” (J Med Chem, 2015)
